From ChEMBL document CHEMBL1201862, “PubChem BioAssay data set” (2004)
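Values below derive from 48-hour exposures of cells grown in 96-well plates, with endpoints linearly interpolated between the two concentrations bracketing the appropriate inhibition level. The concentration for 50% growth inhibition is given as GI50.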 Activity calls are given as the source filed them. Rule as the data show it: active = GI50 up to about 1.1 µM and inactive = higher.

Columns and labels:
Assay in all cases: NCI tumour cell line growth inhibition, 48 h
[1] = system: A498
[2] = system: A549
[3] = system: CCRF-CEM
[4] = system: DU-145
[5] = system: EKVX
[6] = system: HCT-116
[7] = system: HCT-15
[8] = system: HOP-92
[9] = system: HT-29
[10] = system: MDA-MB-231
[11] = system: NCI-H23
[12] = system: NCI-H522
[13] = system: NCI/ADR-RES
[14] = system: OVCAR-8
[15] = system: RXF 393
[16] = system: SF-295
[17] = system: SK-MEL-2
[18] = system: TK-10
[19] = system: SF-539

SMILES | GI50 [1] | GI50 [2] | GI50 [3] | GI50 [4] | GI50 [5] | GI50 [6] | GI50 [7] [µM] | GI50 [8] | GI50 [9] | GI50 [10] | GI50 [11] | GI50 [12] | GI50 [13] | GI50 [14] | GI50 [15] | GI50 [16] | GI50 [17] | GI50 [18] | GI50 [19]
Cc1sc2nc3n(c(=O)c2c1C)N=CN(c1ccccc1)C3 | > 100 µM (inactive) | > 100 µM (inactive) | > 100 µM (inactive) | > 100 µM (inactive) | > 100 µM (inactive) | > 100 µM (inactive) | > 100 | 23.7 µM (inactive) | > 100 µM (inactive) | 68.1 µM (inactive) | > 100 µM (inactive) | 38.5 µM (inactive) | > 100 µM (inactive) | 68.9 µM (inactive) | 37.1 µM (inactive) | 84.9 µM (inactive) | > 100 µM (inactive) | > 100 µM (inactive) | –
C=CCN1CC2CN=NC2(C#N)C1 (stereo not given) | > 100 µM (inactive) | > 100 µM (inactive) | > 100 µM (inactive) | > 100 µM (inactive) | > 100 µM (inactive) | > 100 µM (inactive) | > 100 | 2.33 µM (inactive) | > 100 µM (inactive) | > 100 µM (inactive) | > 100 µM (inactive) | > 100 µM (inactive) | > 100 µM (inactive) | > 100 µM (inactive) | > 100 µM (inactive) | > 100 µM (inactive) | > 100 µM (inactive) | > 100 µM (inactive) | –
c1ccc2c(c1)CCN1CCc3ccccc3C1C2 (stereo not given) | > 100 µM (inactive) | 35.8 µM (inactive) | 58.7 µM (inactive) | > 100 µM (inactive) | 40.4 µM (inactive) | 17.5 µM (inactive) | 40.2 | 31 µM (inactive) | 28.2 µM (inactive) | 42.3 µM (inactive) | 59.7 µM (inactive) | 51.9 µM (inactive) | 65.9 µM (inactive) | 81.1 µM (inactive) | – | 26.9 µM (inactive) | 51.2 µM (inactive) | 59.6 µM (inactive) | 20.5 µM (inactive)
CCn1c2ccccc2c2cc(Nc3cc(C)[nH]c(=O)n3)ccc21 | > 100 µM (inactive) | > 100 µM (inactive) | – | > 100 µM (inactive) | > 100 µM (inactive) | > 100 µM (inactive) | > 100 | > 100 µM (inactive) | > 100 µM (inactive) | > 100 µM (inactive) | > 100 µM (inactive) | 0.916 µM (active) | > 100 µM (inactive) | > 100 µM (inactive) | > 100 µM (inactive) | 4.53 µM (inactive) | > 100 µM (inactive) | > 100 µM (inactive) | > 100 µM (inactive)
O=C(O)CC(C(=O)O)c1ccccc1[N+](=O)[O-] (stereo not given) | > 100 µM (inactive) | > 100 µM (inactive) | > 100 µM (inactive) | > 100 µM (inactive) | > 100 µM (inactive) | > 100 µM (inactive) | > 100 | > 100 µM (inactive) | > 100 µM (inactive) | > 100 µM (inactive) | > 100 µM (inactive) | > 100 µM (inactive) | > 100 µM (inactive) | > 100 µM (inactive) | > 100 µM (inactive) | > 100 µM (inactive) | > 100 µM (inactive) | > 100 µM (inactive) | –
CCN(CC)CCNc1ccc2ncn3c4c(OC)cccc4c(=O)c1c23 | 13.9 µM (inactive) | 4.12 µM (inactive) | 1.73 µM (inactive) | 4.5 µM (inactive) | 4.15 µM (inactive) | 0.54 µM (active) | 3.85 | 4.27 µM (inactive) | 4.04 µM (inactive) | 7.55 µM (inactive) | 5.46 µM (inactive) | 4.4 µM (inactive) | 1.79 µM (inactive) | 6.38 µM (inactive) | 2.45 µM (inactive) | 10.4 µM (inactive) | – | 12.2 µM (inactive) | 3.78 µM (inactive)
C[C@@H]1CC[C@]2(C(=O)O)CC[C@]3(C)C(=CC[C@@H]4[C@@]5(C)CC[C@H](O)C(C)(C)[C@@H]5CC[C@]43C)[C@@H]2[C@]1(C)O [POMOLIC ACID] | 19 µM (inactive) | 17.2 µM (inactive) | 10.3 µM (inactive) | 8.97 µM (inactive) | 18.3 µM (inactive) | 12.2 µM (inactive) | 10.6 | 4.45 µM (inactive) | – | 8.79 µM (inactive) | 18.7 µM (inactive) | 13.9 µM (inactive) | 15.5 µM (inactive) | 20.2 µM (inactive) | – | 3.22 µM (inactive) | 17.1 µM (inactive) | 14.5 µM (inactive) | 3.25 µM (inactive)
